# In patent US11286228B2, “Stilbene derivative and method for preparing same” (Ozchela Inc., priority 2016, dated 2022):
# Biological target: cyclophilin
# Experiment: Cis-trans isomerase inhibitory activity (chymotrypsin-coupled Suc-AAPF-pNA cleavage, absorbance 390 nm)
# Assay type: biochemical
# Settings: cyclophilin, chymotrypsin, Suc-AAPF-pNA; read-out: Test Example 1: cis-trans isomerase inhibitory activity (IC50)
# Outline: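 Cyclophilin isomerase activity coupled to chymotrypsin cleavage of Suc-AAPF-pNA: chymotrypsin cuts only the trans peptide, so isomerase-driven cis-to-trans conversion increases cleavage within a fixed period. Released product read by absorbance at 390 nm with compound present alongside cyclophilin.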
row,SMILES,IC50
1,CCCCOC(=O)c1ccccc1C=Cc1ccc(CC(C)(C)C)cc1 [Compound 64],≤ 20 nM
2,CCCCOC(=O)c1c(C)cccc1C=Cc1ccc(CC(C)(C)C)cc1 [Compound 65],20 to 200 nM
3,CCCCOC(=O)c1c(C=Cc2ccc(CC(C)(C)C)cc2)cccc1CC [Compound 66],20 to 200 nM
4,CCCCCc1ccc(C=Cc2ccccc2C(=O)OCCCC)cc1 [Compound 132],≤ 20 nM
5,CC(C)(C)Cc1ccc(C=Cc2ccccc2C(=O)O)cc1 [Compound 134],≤ 20 nM
6,CC(C)(C)Cc1ccc(C=Cc2cccc(O)c2C(=O)O)cc1 [Compound 135],≤ 20 nM
7,CC(C)(C)Cc1ccc(C=Cc2ccc(O)cc2C(=O)O)cc1 [Compound 136],≤ 20 nM
8,CC(C)(C)Cc1ccc(C=Cc2cccc(N)c2C(=O)O)cc1 [Compound 137],≤ 20 nM
9,CC(C)(C)Cc1ccc(C=Cc2ccc(N)cc2C(=O)O)cc1 [Compound 138],≤ 20 nM
10,Cc1cccc(C=Cc2ccc(CC(C)(C)C)cc2)c1C(=O)O [Compound 139],≤ 20 nM
11,Cc1ccc(C=Cc2ccc(CC(C)(C)C)cc2)c(C(=O)O)c1 [Compound 140],≤ 20 nM
12,CC(C)(C)Cc1ccc(C=Cc2ccccc2C(N)=O)cc1 [Compound 141],≤ 20 nM
13,CCCCOC(=O)c1cc2ccccc2cc1C=Cc1ccc(CC(C)(C)C)cc1 [Compound 142],20 to 200 nM
14,CCCCOC(=O)c1ccccc1C=Cc1ccc(CC(C)(C)C)cn1 [Compound 143],20 to 200 nM
15,CCCCOC(=O)c1ccccc1C=Cc1ccc(CC(C)(C)C)nc1 [Compound 144],20 to 200 nM
16,CCCCOC(=O)c1ncccc1C=Cc1ccc(CC(C)(C)C)cc1 [Compound 145],20 to 200 nM

# Same assay, conditions: read-out: Test Example 1: cis-trans isomerase inhibitory activity (IC50) group
row,SMILES,IC50
1,CCCCOC(=O)c1cnccc1C=Cc1ccc(CC(C)(C)C)cc1 [Compound 146],20 to 200 nM
2,CCCCOC(=O)c1ccncc1C=Cc1ccc(CC(C)(C)C)cc1 [Compound 147],20 to 200 nM
3,CCCCOC(=O)c1cccnc1C=Cc1ccc(CC(C)(C)C)cc1 [Compound 148],20 to 200 nM
4,CCCCOC(=O)c1cccc(C(=O)OCCCC)c1C=Cc1ccc(CC(C)(C)C)cc1 [Compound 149],20 to 200 nM
5,CC(C)(C)Cc1ccc(C=Cc2c(O)cccc2C(=O)O)cc1 [Compound 150],≤ 20 nM
6,CC(C)(C)Cc1ccc(C=Cc2c(N)cccc2C(=O)O)cc1 [Compound 151],≤ 20 nM
7,Cc1cccc(C(=O)O)c1C=Cc1ccc(CC(C)(C)C)cc1 [Compound 152],≤ 20 nM
8,CC(C)(C)Cc1ccc(C=Cc2cc(O)ccc2C(=O)O)cc1 [Compound 153],20 to 200 nM
9,CC(C)(C)Cc1ccc(C=Cc2cc(N)ccc2C(=O)O)cc1 [Compound 154],20 to 200 nM
10,Cc1ccc(C(=O)O)c(C=Cc2ccc(CC(C)(C)C)cc2)c1 [Compound 155],20 to 200 nM

# System: mitochondria obtained from hepatocytes
# Experiment: Inhibitory activity on calcium-induced mitochondrial swelling (absorbance 520 nm)
# Settings: Hepatocyte; calcium-induced swelling of extracted mitochondria; read-out: Test Example 4: inhibiting mitochondrial swelling (IC50)
# Outline: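 Mitochondria isolated from hepatocytes by Dounce disruption, 700×g clearing and 12,000×g pelleting. Swelling induced with calcium and followed as absorbance at 520 nm; activity expressed as IC50.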
row,SMILES,IC50
1,CCCCOC(=O)c1ccccc1C=Cc1ccc(CC(C)(C)C)cc1 [Compound 64],< 5000 nM
2,CCCCOC(=O)c1c(C)cccc1C=Cc1ccc(CC(C)(C)C)cc1 [Compound 65],5000 to 50000 nM
3,CCCCOC(=O)c1c(C=Cc2ccc(CC(C)(C)C)cc2)cccc1CC [Compound 66],5000 to 50000 nM
4,CCCCCc1ccc(C=Cc2ccccc2C(=O)OCCCC)cc1 [Compound 132],< 5000 nM
5,CC(C)(C)Cc1ccc(C=Cc2ccccc2C(=O)O)cc1 [Compound 134],< 5000 nM
6,CC(C)(C)Cc1ccc(C=Cc2cccc(O)c2C(=O)O)cc1 [Compound 135],< 5000 nM
7,CC(C)(C)Cc1ccc(C=Cc2ccc(O)cc2C(=O)O)cc1 [Compound 136],< 5000 nM
8,CC(C)(C)Cc1ccc(C=Cc2cccc(N)c2C(=O)O)cc1 [Compound 137],< 5000 nM
9,CC(C)(C)Cc1ccc(C=Cc2ccc(N)cc2C(=O)O)cc1 [Compound 138],< 5000 nM
10,Cc1cccc(C=Cc2ccc(CC(C)(C)C)cc2)c1C(=O)O [Compound 139],< 5000 nM
11,Cc1ccc(C=Cc2ccc(CC(C)(C)C)cc2)c(C(=O)O)c1 [Compound 140],< 5000 nM
12,CC(C)(C)Cc1ccc(C=Cc2ccccc2C(N)=O)cc1 [Compound 141],< 5000 nM
13,CCCCOC(=O)c1cc2ccccc2cc1C=Cc1ccc(CC(C)(C)C)cc1 [Compound 142],5000 to 50000 nM
14,CCCCOC(=O)c1ccccc1C=Cc1ccc(CC(C)(C)C)cn1 [Compound 143],5000 to 50000 nM
15,CCCCOC(=O)c1ccccc1C=Cc1ccc(CC(C)(C)C)nc1 [Compound 144],5000 to 50000 nM
16,CCCCOC(=O)c1ncccc1C=Cc1ccc(CC(C)(C)C)cc1 [Compound 145],5000 to 50000 nM

# Same assay, conditions: Hepatocyte; read-out: Test Example 4: activity on inhibiting mitochondrial swelling (IC50) group
row,SMILES,IC50
1,CCCCOC(=O)c1cnccc1C=Cc1ccc(CC(C)(C)C)cc1 [Compound 146],5000 to 50000 nM
2,CCCCOC(=O)c1ccncc1C=Cc1ccc(CC(C)(C)C)cc1 [Compound 147],5000 to 50000 nM
3,CCCCOC(=O)c1cccc(C(=O)OCCCC)c1C=Cc1ccc(CC(C)(C)C)cc1 [Compound 149],5000 to 50000 nM
4,CC(C)(C)Cc1ccc(C=Cc2c(O)cccc2C(=O)O)cc1 [Compound 150],< 5000 nM
5,CC(C)(C)Cc1ccc(C=Cc2c(N)cccc2C(=O)O)cc1 [Compound 151],< 5000 nM
6,Cc1cccc(C(=O)O)c1C=Cc1ccc(CC(C)(C)C)cc1 [Compound 152],< 5000 nM
7,CC(C)(C)Cc1ccc(C=Cc2cc(N)ccc2C(=O)O)cc1 [Compound 154],5000 to 50000 nM
8,Cc1ccc(C(=O)O)c(C=Cc2ccc(CC(C)(C)C)cc2)c1 [Compound 155],5000 to 50000 nM

# Same assay, conditions: read-out: Test Example 4: activity on inhibiting mitochondrial swelling (IC50) group
row,SMILES,IC50
1,CCCCOC(=O)c1cccnc1C=Cc1ccc(CC(C)(C)C)cc1 [Compound 148],5000 to 50000 nM
2,CC(C)(C)Cc1ccc(C=Cc2cc(O)ccc2C(=O)O)cc1 [Compound 153],5000 to 50000 nM

# System: not listed separately
# Experiment: Cytotoxicity, MTT test in HCV replicon cells
# Assay type: cell-based
# Settings: not given
# Procedure: The cytotoxicity of the stilbene derivatives was measured. Replicon cells that stably replicate a hepatitis C virus genome were attached to a 96-well plate and cultured in a CO2 incubator at 37° C. for 24 hr. The replicon cells cultured for one day were washed with a phosphate buffered saline (PBS) solution, treated with the compounds of the present invention, and then cultured for 72 hr. Thereafter, through the MTT [3-(4,5-dimethylthiazol-2-yl)-2,5-diphenyltetrazolium bromide] cytotoxicity test, CC50 values of the compounds of the present invention were measured. The CC50 values of the compounds of the present invention were 200 μM or more.
row,SMILES,CC50 at 72 h
1,CCCCOC(=O)c1ccccc1C=Cc1ccc(CC(C)(C)C)cc1 [Compound 64],320000 nM
2,CCCCOC(=O)c1c(C)cccc1C=Cc1ccc(CC(C)(C)C)cc1 [Compound 65],284000 nM
3,CCCCOC(=O)c1c(C=Cc2ccc(CC(C)(C)C)cc2)cccc1CC [Compound 66],245000 nM

# System: hepatitis C virus
# Experiment: Antiviral activity in HCV replicon cells (Renilla luciferase)
# Assay type: cell-based
# Settings: HCV replicon cells; read-out: Test Example 3: antiviral activity (EC50) group
# Outline: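 Replicon cells stably carrying the HCV genome, pre-cultured 24 h at 37 °C, treated with compound for 72 h, then lysed on ice. Renilla luciferase luminescence used as a measure of HCV genome level, expressed relative to DMSO-treated cells, from which EC50 was derived.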
row,SMILES,EC50
1,CCCCOC(=O)c1cccnc1C=Cc1ccc(CC(C)(C)C)cc1 [Compound 148],500 to 5000 nM
2,CC(C)(C)Cc1ccc(C=Cc2cc(O)ccc2C(=O)O)cc1 [Compound 153],500 to 5000 nM

# Same assay, conditions: Hepatitis C virus; HCV replicon cells, 72 hr, Renilla luciferase, relative to DMSO; read-out: Test Example 3: antiviral activity (EC50)
row,SMILES,EC50
1,CCCCOC(=O)c1ccccc1C=Cc1ccc(CC(C)(C)C)cc1 [Compound 64],< 500 nM
2,CCCCOC(=O)c1c(C)cccc1C=Cc1ccc(CC(C)(C)C)cc1 [Compound 65],500 to 5000 nM
3,CCCCOC(=O)c1c(C=Cc2ccc(CC(C)(C)C)cc2)cccc1CC [Compound 66],500 to 5000 nM
4,CCCCCc1ccc(C=Cc2ccccc2C(=O)OCCCC)cc1 [Compound 132],< 500 nM
5,CC(C)(C)Cc1ccc(C=Cc2ccccc2C(=O)O)cc1 [Compound 134],< 500 nM
6,CC(C)(C)Cc1ccc(C=Cc2cccc(O)c2C(=O)O)cc1 [Compound 135],< 500 nM
7,CC(C)(C)Cc1ccc(C=Cc2ccc(O)cc2C(=O)O)cc1 [Compound 136],< 500 nM
8,CC(C)(C)Cc1ccc(C=Cc2cccc(N)c2C(=O)O)cc1 [Compound 137],< 500 nM
9,CC(C)(C)Cc1ccc(C=Cc2ccc(N)cc2C(=O)O)cc1 [Compound 138],< 500 nM
10,Cc1cccc(C=Cc2ccc(CC(C)(C)C)cc2)c1C(=O)O [Compound 139],< 500 nM
11,Cc1ccc(C=Cc2ccc(CC(C)(C)C)cc2)c(C(=O)O)c1 [Compound 140],< 500 nM
12,CC(C)(C)Cc1ccc(C=Cc2ccccc2C(N)=O)cc1 [Compound 141],< 500 nM
13,CCCCOC(=O)c1cc2ccccc2cc1C=Cc1ccc(CC(C)(C)C)cc1 [Compound 142],500 to 5000 nM
14,CCCCOC(=O)c1ccccc1C=Cc1ccc(CC(C)(C)C)cn1 [Compound 143],500 to 5000 nM
15,CCCCOC(=O)c1ccccc1C=Cc1ccc(CC(C)(C)C)nc1 [Compound 144],500 to 5000 nM
16,CCCCOC(=O)c1ncccc1C=Cc1ccc(CC(C)(C)C)cc1 [Compound 145],500 to 5000 nM

# Same assay, conditions: Hepatitis C virus; HCV replicon cells; read-out: Test Example 3: antiviral activity (EC50) group
row,SMILES,EC50
1,CCCCOC(=O)c1cnccc1C=Cc1ccc(CC(C)(C)C)cc1 [Compound 146],500 to 5000 nM
2,CCCCOC(=O)c1ccncc1C=Cc1ccc(CC(C)(C)C)cc1 [Compound 147],500 to 5000 nM
3,CCCCOC(=O)c1cccc(C(=O)OCCCC)c1C=Cc1ccc(CC(C)(C)C)cc1 [Compound 149],500 to 5000 nM
4,CC(C)(C)Cc1ccc(C=Cc2c(O)cccc2C(=O)O)cc1 [Compound 150],< 500 nM
5,CC(C)(C)Cc1ccc(C=Cc2c(N)cccc2C(=O)O)cc1 [Compound 151],< 500 nM
6,Cc1cccc(C(=O)O)c1C=Cc1ccc(CC(C)(C)C)cc1 [Compound 152],< 500 nM
7,CC(C)(C)Cc1ccc(C=Cc2cc(N)ccc2C(=O)O)cc1 [Compound 154],500 to 5000 nM
8,Cc1ccc(C(=O)O)c(C=Cc2ccc(CC(C)(C)C)cc2)c1 [Compound 155],500 to 5000 nM
